Results published in patent US8895504B2, “Amylin derivatives” (priority 2008, dated 2014).
pEC50: −log10 of the molar value. *1 amine or outer side, *2 acyl side, *3 side chain or, on linkers, in order; H or OH if unused. Where a SMILES comes first, the peptide text is derived from it. Bridges are numbered along the chain shown (N, C = ends). The star is where a group is joined. C20 diacid = O=C(O)CCCCCCCCCCCCCCCCCCC(=O)*; γGlu = O=C(O)[C@H](CCC(=O)[*:2])N[*:1]

Target: T1, Amylin 3(a) receptor (human calcitonin receptor (CTa) and RAMP-3) (Homo sapiens, UniProt O60896+P30988)
T1 construct: expressed in transfected cells; host or cells: BHK570 cells, stably transfected with a CRE-luciferase reporter
T1 sequence (O60896 24-148): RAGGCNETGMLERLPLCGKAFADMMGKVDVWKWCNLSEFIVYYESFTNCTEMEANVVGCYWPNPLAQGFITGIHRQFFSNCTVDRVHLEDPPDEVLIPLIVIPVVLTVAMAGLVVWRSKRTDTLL
T1 sequence (P30988 25-474): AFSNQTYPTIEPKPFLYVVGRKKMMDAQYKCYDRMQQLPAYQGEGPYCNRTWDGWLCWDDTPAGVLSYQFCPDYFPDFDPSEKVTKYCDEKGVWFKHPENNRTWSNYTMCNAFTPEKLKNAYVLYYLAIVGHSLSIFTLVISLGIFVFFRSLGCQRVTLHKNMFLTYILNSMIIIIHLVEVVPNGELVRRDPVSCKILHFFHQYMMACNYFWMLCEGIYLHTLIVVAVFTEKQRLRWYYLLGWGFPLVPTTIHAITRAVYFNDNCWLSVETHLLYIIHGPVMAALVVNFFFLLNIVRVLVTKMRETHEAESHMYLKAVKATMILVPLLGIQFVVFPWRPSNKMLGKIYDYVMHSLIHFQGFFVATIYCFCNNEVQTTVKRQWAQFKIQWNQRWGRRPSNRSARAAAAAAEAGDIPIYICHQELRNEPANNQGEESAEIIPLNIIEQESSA
Assay: Luciferase assay (III), BHK Amylin 3(a)//CRE-luc cells
Assay type: cell-based
Settings: BHK cells with Amylin 3(a) receptor and CRE luciferase reporter, 4 hours incubation; read-out: Potency Luciferase
Procedure, shortened: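 Read-out is CRE-driven luciferase luminescence, taken 30 min after LucLite addition at room temperature. Compounds were incubated 4 h at 37° C in assay medium (10% FBS, 10 mM Hepes, pH 7,4). The cell line is BHK570 co-transfected with human calcitonin receptor CTa and RAMP-3, seeded overnight before use.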

| Structure (SMILES) | pEC50 |
| --- | --- |
| CC[C@H](C)[C@H](NC(=O)[C@@H]1CCCN1C(=O)CNC(=O)[C@H](Cc1ccccc1)NC(=O)[C@H](CC(N)=O)NC(=O)[C@H](CC(N)=O)NC(=O)[C@H](CO)NC(=O)[C@H](CO)NC(=O)[C@H](Cc1c[nH]cn1)NC(=O)[C@H](Cc1c[nH]cn1)NC(=O)[C@H](CC(C)C)NC(=O)[C@H](Cc1ccccc1)NC(=O)[C@H](CC(N)=O)NC(=O)[C@H](C)NC(=O)[C@H](CC(C)C)NC(=O)[C@H](CCCNC(=N)N)NC(=O)[C@H](CCC(N)=O)NC(=O)[C@@H](NC(=O)[C@H](C)NC(=O)[C@@H]1CSSC[C@H](NC(=O)[C@H](CCCCN)NC(=O)[C@H](CCCNC(=N)N)NC(=O)[C@H](CCCCN)NC(=O)[C@H](CCC(=O)O)NC(=O)CCCCCCCCCCCCCCCCCCC(=O)O)C(=O)N[C@@H](CC(N)=O)C(=O)N[C@@H]([C@@H](C)O)C(=O)N[C@@H](C)C(=O)N[C@@H]([C@@H](C)O)C(=O)N1)[C@@H](C)O)C(=O)N[C@@H](CC(C)C)C(=O)N1CCC[C@H]1C(=O)N1CCC[C@H]1C(=O)N[C@H](C(=O)N[C@@H](CC(N)=O)C(=O)N[C@H](C(=O)NCC(=O)N[C@@H](CO)C(=O)N[C@@H](CC(N)=O)C(=O)N[C@H](C(=O)N[C@@H](Cc1ccc(O)cc1)C(N)=O)[C@@H](C)O)C(C)C)[C@@H](C)O [Example 9, N-alpha-[19-carboxynonadecanoyl]-Glu-Lys-Arg-[His17]-pramlintide] ({C20 diacid}-EKRKCNTATCATQRLANFLHHSSNNFGPILPPTNVGSNTY-NH2; disulfide 5-10) | 10.22 |
| CC[C@H](C)[C@H](NC(=O)[C@@H]1CCCN1C(=O)CNC(=O)[C@H](Cc1ccccc1)NC(=O)[C@H](CC(N)=O)NC(=O)[C@H](CC(N)=O)NC(=O)[C@H](CO)NC(=O)[C@H](CO)NC(=O)[C@H](Cc1c[nH]cn1)NC(=O)[C@H](Cc1c[nH]cn1)NC(=O)[C@H](CC(C)C)NC(=O)[C@H](Cc1ccccc1)NC(=O)[C@H](CC(N)=O)NC(=O)[C@H](C)NC(=O)[C@H](CC(C)C)NC(=O)[C@H](CCCNC(=N)N)NC(=O)[C@H](CCC(N)=O)NC(=O)[C@@H](NC(=O)[C@H](C)NC(=O)[C@@H]1CSSC[C@H](NC(=O)[C@H](CCCNC(=N)N)NC(=O)[C@H](Cc2c[nH]cn2)NC(=O)[C@H](CCCNC(=N)N)NC(=O)[C@H](CCC(=O)O)NC(=O)CC[C@H](NC(=O)CCCCCCCCCCCCCCCCCCC(=O)O)C(=O)O)C(=O)N[C@@H](CC(N)=O)C(=O)N[C@@H]([C@@H](C)O)C(=O)N[C@@H](C)C(=O)N[C@@H]([C@@H](C)O)C(=O)N1)[C@@H](C)O)C(=O)N[C@@H](CC(C)C)C(=O)N1CCC[C@H]1C(=O)N1CCC[C@H]1C(=O)N[C@H](C(=O)N[C@@H](CC(N)=O)C(=O)N[C@H](C(=O)NCC(=O)N[C@@H](CO)C(=O)N[C@@H](CC(N)=O)C(=O)N[C@H](C(=O)N[C@@H](Cc1ccc(O)cc1)C(N)=O)[C@@H](C)O)C(C)C)[C@@H](C)O [Example 69, N-alpha-[(S)-4-Carboxy-4-(19-carboxynonadecanoylamino)butyryl]-Glu-Arg-His-[Arg1,His17]-pramlintide] ({C20 diacid-γGlu}-ERHRCNTATCATQRLANFLHHSSNNFGPILPPTNVGSNTY-NH2; disulfide 5-10) | 10.00 |

Second part, the molecule after the results:

| pEC50 | Structure (SMILES) |
| --- | --- |
| 10.00 | CC[C@H](C)[C@H](NC(=O)[C@@H]1CCCN1C(=O)CNC(=O)[C@H](Cc1ccccc1)NC(=O)[C@H](CC(N)=O)NC(=O)[C@H](CC(N)=O)NC(=O)[C@H](CO)NC(=O)[C@H](CO)NC(=O)[C@H](Cc1c[nH]cn1)NC(=O)[C@H](CCCNC(=N)N)NC(=O)[C@H](CC(C)C)NC(=O)[C@H](Cc1ccccc1)NC(=O)[C@H](CC(N)=O)NC(=O)[C@H](C)NC(=O)[C@H](CC(C)C)NC(=O)[C@H](CCCNC(=N)N)NC(=O)[C@H](CCC(N)=O)NC(=O)[C@@H](NC(=O)[C@H](C)NC(=O)[C@@H]1CSSC[C@H](NC(=O)[C@H](Cc2c[nH]cn2)NC(=O)[C@H](Cc2c[nH]cn2)NC(=O)CC[C@H](NC(=O)CCCCCCCCCCCCCCCCCCC(=O)O)C(=O)O)C(=O)N[C@@H](CC(N)=O)C(=O)N[C@@H]([C@@H](C)O)C(=O)N[C@@H](C)C(=O)N[C@@H]([C@@H](C)O)C(=O)N1)[C@@H](C)O)C(=O)N[C@@H](CC(C)C)C(=O)N1CCC[C@H]1C(=O)N1CCC[C@H]1C(=O)N[C@H](C(=O)N[C@@H](CC(N)=O)C(=O)N[C@H](C(=O)NCC(=O)N[C@@H](CO)C(=O)N[C@@H](CC(N)=O)C(=O)N[C@H](C(=O)N[C@@H](Cc1ccc(O)cc1)C(N)=O)[C@@H](C)O)C(C)C)[C@@H](C)O [Example 35, N-alpha-[(S)-4-Carboxy-4-(19-carboxynonadecanoylamino)butyryl]-His-[His1,Arg17]-pramlintide] ({C20 diacid-γGlu}-HHCNTATCATQRLANFLRHSSNNFGPILPPTNVGSNTY-NH2; disulfide 3-8) |
| 10.00 | CC[C@H](C)[C@H](NC(=O)[C@@H]1CCCN1C(=O)CNC(=O)[C@H](Cc1ccccc1)NC(=O)[C@H](CC(N)=O)NC(=O)[C@H](CC(N)=O)NC(=O)[C@H](CO)NC(=O)[C@H](CO)NC(=O)[C@H](Cc1c[nH]cn1)NC(=O)[C@H](C)NC(=O)[C@H](CC(C)C)NC(=O)[C@H](Cc1ccccc1)NC(=O)[C@H](CC(N)=O)NC(=O)[C@H](C)NC(=O)[C@H](CC(C)C)NC(=O)[C@H](CCCNC(=N)N)NC(=O)[C@H](CCC(N)=O)NC(=O)[C@@H](NC(=O)[C@H](C)NC(=O)[C@@H]1CSSC[C@H](NC(=O)CC[C@H](NC(=O)CCCCCCCCCCCCCCCCCCC(=O)O)C(=O)O)C(=O)N[C@@H](CC(N)=O)C(=O)N[C@@H]([C@@H](C)O)C(=O)N[C@@H](C)C(=O)N[C@@H]([C@@H](C)O)C(=O)N1)[C@@H](C)O)C(=O)N[C@@H](CC(C)C)C(=O)N1CCC[C@H]1C(=O)N1CCC[C@H]1C(=O)N[C@H](C(=O)N[C@@H](CC(N)=O)C(=O)N[C@H](C(=O)NCC(=O)N[C@@H](CO)C(=O)N[C@@H](CC(N)=O)C(=O)N[C@H](C(=O)N[C@@H](Cc1ccc(O)cc1)C(N)=O)[C@@H](C)O)C(C)C)[C@@H](C)O [Example 12, N-alpha-[(S)-4-Carboxy-4-(19-carboxynonadecanoylamino)butyryl]-[Ala17]-pramlintide (2-37)] ({C20 diacid-γGlu}-CNTATCATQRLANFLAHSSNNFGPILPPTNVGSNTY-NH2; disulfide 1-6) |
| 9.05 | CC[C@H](C)[C@H](NC(=O)[C@@H]1CCCN1C(=O)CNC(=O)[C@H](Cc1ccccc1)NC(=O)[C@H](CC(N)=O)NC(=O)[C@H](CC(N)=O)NC(=O)[C@H](CO)NC(=O)[C@H](CO)NC(=O)[C@H](Cc1c[nH]cn1)NC(=O)[C@H](Cc1c[nH]cn1)NC(=O)[C@H](CC(C)C)NC(=O)[C@H](Cc1ccccc1)NC(=O)[C@H](CCC(=O)O)NC(=O)[C@H](C)NC(=O)[C@H](CC(C)C)NC(=O)[C@H](CCCNC(=N)N)NC(=O)[C@H](CCC(N)=O)NC(=O)[C@@H](NC(=O)[C@H](C)NC(=O)[C@@H]1CSSC[C@H](NC(=O)[C@H](CCC(=O)O)NC(=O)[C@H](CCCNC(=N)N)NC(=O)[C@H](CCC(=O)O)NC(=O)[C@H](CCC(=O)O)NC(=O)CCCCCCCCCCCCCCCCCCC(=O)O)C(=O)N[C@@H](CC(N)=O)C(=O)N[C@@H]([C@@H](C)O)C(=O)N[C@@H](C)C(=O)N[C@@H]([C@@H](C)O)C(=O)N1)[C@@H](C)O)C(=O)N[C@@H](CC(C)C)C(=O)N1CCC[C@H]1C(=O)N1CCC[C@H]1C(=O)N[C@H](C(=O)N[C@@H](CCC(=O)O)C(=O)N[C@H](C(=O)NCC(=O)N[C@@H](CO)C(=O)N[C@@H](CC(N)=O)C(=O)N[C@H](C(=O)N[C@@H](Cc1ccc(O)cc1)C(N)=O)[C@@H](C)O)C(C)C)[C@@H](C)O [Example 1, N-alpha-(19-carboxynonadecanoyl)-Glu-Glu-Arg-[Glu1,Glu14,His17,Glu31]-pramlintide] ({C20 diacid}-EERECNTATCATQRLAEFLHHSSNNFGPILPPTEVGSNTY-NH2; disulfide 5-10) |
